This is an account of results in PubChem BioAssay (NCI).

Common to all, as to assay: DTP human tumour cell line panel, 48 h
Assay [1] deals with 786-0 renal.
Assay [2] relates to A498 renal.
Assay [3] relates to HCT-116 colon.
For assay [4], the system named is IGROV1 ovarian.
The subject of assay [5] is M14 melanoma.
Assay [6] concerns MOLT-4 leukemia.
In assay [7] the test system is NCI-H226 lung.
Assay [8] relates to SK-MEL-2 melanoma.
Assay [9] concerns TK-10 renal.
In assay [10] the test system is U251 CNS.

The structures appear in SMILES notation. Where “and” joins values, the source holds several entries; their conditions need not be identical. Equal values may be shown once.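 Exposure lasted 48 hours, with cells grown in 96-well plates and compounds tested at five concentrations. GI50 = concentration required for 50% inhibition of growth. TGI denotes the concentration required for complete inhibition of growth.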 A value given as a limit tells only on which side of the number the result lay.

A word on the TGI: it is the concentration at which net growth stops. Low values mean more potent growth arrest, high ones less potent growth arrest. Consider `COC(=O)C(/C(=N\NC(N)=S)C(=O)Nc1ccccc1[N+](=O)[O-])c1cnc2ccccc2n1` (configuration not stated), for which the total growth inhibition concentration (TGI) in [1], in assay [2], in [3], in assay [4], in [5] and in assay [6] was greater than 100 µM each time. For the same molecule, the concentration for total growth inhibition (TGI) in [7], in assay [8], in [9] and in assay [10] was greater than 100 µM each time.

One may read the GI50 as the concentration that inhibits growth by half. With `Cc1ccc(OCC2OC(n3cnc4c(Br)nc(Br)nc43)CC2Oc2ccc(C)cc2)cc1` (configuration not stated), the GI50 in assay [1] is 1.57 µM; in assay [2] it was 22.9 µM; in [3], 5.29 µM; in assay [4], 2.71 µM; in assay [7], 1.63 µM; in assay [8], 14.1 µM. Also, the GI50 in assay [9] is 14.4 µM; in [10] it was 1.61 µM. Moreover, the TGI in assay [1] was 3.48 µM and 9.92 µM; in assay [2], 20.6 µM and 41 µM; in assay [3] it was 14.5 µM and 3.6 µM; in assay [4], 8.86 µM and 9.89 µM; in assay [5], 10.6 µM and 7.47 µM; in [6] it was 4.34 µM and 5.42 µM. Further, the TGI in [7] is 33 µM and 3.77 µM; in [8], 28.3 µM and 8.15 µM; in assay [9], 28.4 µM and > 54.3 µM; in assay [10], 3.99 µM and 4.82 µM.

As for `O=C1C2C3C=CC(C2C(=O)N1CN1CCSCC1)C1C2C(=O)N(CN4CCSCC4)C(=O)C2C31` (configuration not stated), the concentration for total growth inhibition (TGI) in [1] is greater than 79.2 µM; in assay [2] it was greater than 100 µM; in assay [3], greater than 55.9 µM; in assay [4], greater than 100 µM; in assay [5], greater than 100 µM; in assay [6] it was greater than 100 µM. The TGI in assay [7], in assay [8], in [9] and in [10] was greater than 100 µM throughout. Also, the GI50 in assay [6] is 54.2 µM.

Take `c1ccc2c(NCCCCCCNc3cccc4ccccc34)cccc2c1`: the TGI in assay [1], in assay [2], in [3], in assay [4], in assay [5] and in assay [6] was greater than 100 µM in each case. For the same molecule, the TGI in [7], in assay [8], in [9] and in assay [10] was greater than 100 µM in each case.

Regarding `Cc1ccc2nc(NC(=O)/C(=N\NC(=S)NN)C3C(=O)NC(=S)NC3=O)sc2c1`, the TGI in [1], in assay [2], in [3], in [4], in assay [5] and in assay [6] was greater than 100 µM each time. Also, the total growth inhibition concentration (TGI) in assay [7], in [8], in [9] and in assay [10] was greater than 100 µM in each case.

For `CN(C)c1ccc(N=C2C=CC(=O)c3ccccc32)cc1`, the GI50 in [1] is 15.2 µM; in assay [2], 12 µM; in [3] it was 2.88 µM; in assay [4], 2.76 µM; in assay [5], 1.79 µM; in assay [6], 2.45 µM. For the same molecule, the GI50 was 18.2 µM in [7], 3.5 µM in [8], 17 µM in [9] and 2.47 µM in [10]. In addition, the TGI in assay [1] is 32.5 µM; in assay [2], 25.2 µM; in [3], 13.3 µM; in assay [4] it was 9.28 µM; in assay [5] it was 3.61 µM; in assay [6] it was 6.21 µM. In addition, the TGI in assay [7] is 54 µM; in assay [8], 11 µM; in assay [9], 31 µM; in [10] it was 7.9 µM.

With `COc1ccc(OC)c(/C=C/c2nc(SCc3ccccc3)n(-c3ccc(Cl)cc3)n2)c1`, the GI50 was 7.66 µM in [1]; 4.54 µM in assay [2]; 4.04 µM in assay [3]; 13.1 µM in assay [4]; 4.22 µM in assay [5]; 6.51 µM in [6]. Further, the GI50 in assay [7] is 27.8 µM; in [8] it was 6.38 µM; in [9], 30.6 µM; in assay [10], 5.35 µM. The TGI in assay [1] was greater than 100 µM; in assay [2] it was 88.4 µM; in assay [3], greater than 100 µM; in assay [4] it was greater than 100 µM; in assay [5], greater than 100 µM; in assay [6], greater than 100 µM. Moreover, the TGI in [7], in assay [8], in assay [9] and in assay [10] was greater than 100 µM in each case.

As for `CN(C)c1ccc2nc(CC(O)(C(F)(F)F)C(F)(F)F)ccc2c1`, the total growth inhibition concentration (TGI) in [1], in [2], in [3], in assay [4], in assay [5] and in assay [6] was greater than 10 µM throughout. The TGI in assay [7], in assay [8], in assay [9] and in assay [10] was greater than 10 µM in each case.

On to `Cn1cnc([N+](=O)[O-])c1Sc1nccc(=O)[nH]1`, for which the TGI in assay [1], in assay [2], in assay [3], in assay [4], in assay [5] and in [6] was greater than 100 µM in each case. In addition, the total growth inhibition concentration (TGI) in assay [7], in [8], in assay [9] and in assay [10] was greater than 100 µM throughout.

As for `O=C(O)CCC(C(=O)O)N1C(=O)C2C3CCC(C3)C2C1=O` (configuration not stated), the TGI in assay [1], in [2], in [3], in [4], in assay [5] and in [6] was greater than 100 µM in each case. For the same molecule, the total growth inhibition concentration (TGI) in [7], in assay [8], in [9] and in [10] was greater than 100 µM throughout.

On to `O=C(O[C@H]1CCN2C[C@H]3C[C@H](CN4C(=O)CCC[C@H]34)[C@@H]2C1)c1ccc(O)cc1`, for which the TGI in [1], in assay [2], in assay [3], in assay [4], in [5] and in [7] was greater than 100 µM throughout. In addition, the TGI in assay [8], in [9] and in assay [10] was greater than 100 µM in each case.

On to `CCN(CC)CCn1c2ccccc2c(=O)c2c(OC)ccc(OC)c21`, for which the TGI in [1] was greater than 100 µM; in [2], greater than 100 µM; in assay [3], greater than 100 µM; in assay [5], greater than 100 µM; in assay [6], greater than 100 µM; in assay [7] it was 97.3 µM. For the same molecule, the concentration for total growth inhibition (TGI) in assay [8] and in assay [10] was greater than 100 µM throughout.

Regarding `CCN(CC)CCNc1ccc2nc(C)n3c4ccc(O)cc4c(=O)c1c23`, the TGI in assay [1] was determined as 10.4 µM; in assay [2] it was 13.3 µM; in assay [3], 10.3 µM; in assay [4] it was 15.5 µM; in assay [5], 16.2 µM; in assay [6], 0.293 µM. Also, the TGI in assay [7] was found to be 2.13 µM; in assay [8] it was 20.3 µM; in [10], 15.8 µM.

As for `COc1cccc(Nc2nccc(-c3cnn4ncccc34)n2)c1`, the GI50 in [1] was 0.0871 µM; in assay [2], 0.0483 µM; in assay [3], 0.0478 µM; in [4], 0.101 µM; in assay [5], 0.0777 µM; in assay [6], 0.078 µM. Further, the results for the GI50 in assay [7], in assay [8] and in assay [10] were 0.0546 µM, 0.0572 µM and 0.0553 µM, respectively. Also, the TGI in assay [1] is greater than 25 µM; in [2] it was 0.126 µM; in assay [3] it was greater than 11 µM; in assay [4], greater than 25 µM; in assay [5], 0.34 µM; in [7], 0.18 µM. For the same molecule, the values for the TGI in [8] and in [10] were 0.138 µM and 9.24 µM, respectively.

As to `C=CCN(N=O)C(=O)NCCCCC(NC(C)=O)C(=O)NCc1ccccc1` (configuration not stated), the TGI in [1], in [2], in assay [4], in [5], in assay [6] and in [7] was greater than 100 µM in each case. Also, the TGI in assay [8], in [9] and in assay [10] was greater than 100 µM throughout.

Turning to `CCOC1CC2OC(=O)C1C=C2C(=O)OC` (configuration not stated), the concentration for total growth inhibition (TGI) is 75.9 µM in assay [1]; greater than 100 µM in [2]; greater than 100 µM in assay [4]; 38.6 µM in assay [5]; 48.8 µM in assay [6]; greater than 100 µM in assay [7]. For the same molecule, the values for the concentration for total growth inhibition (TGI) in [8], in [9] and in assay [10] were 65.7 µM, 84.1 µM and greater than 100 µM, respectively.

Regarding `C=C1Cc2cc(OC)c(OC)c(OC)c2-c2ccc(SC)c(=O)cc21`, the concentration for total growth inhibition (TGI) in assay [1] was 1.8 µM; in assay [2], 0.421 µM; in [4] it was 7.66 µM; in assay [6], 25.2 µM; in [7], 0.188 µM; in [8], less than 0.01 µM. In [9], this molecule displayed a TGI of 6.83 µM.
